According to US20050004039A1, “Selective analgesic agents” (Regents of the University of Minnesota, priority 2002, published 2005):

Tests used:
mice [1] = assay: Antagonism of selective opioid agonist-induced antinociception, intrathecal, modified tail flick assay; assay type: in vivo, mouse; details: for norBNI antagonism of antinociception with co-administered dynorphin-A antiserum (DAS): FIG. 7, FIG. 8
[2] = system: mouse vas deferens preparation; assay: Mouse vas deferens preparation (MVD)
Procedure: Mouse vasa deferentia are prepared using the method of Henderson, et al (see Henderson, G.; Hughes, J.; Kosterlitz, H. W., Br. J. Pharmacol. 1972, 46, 764-766). Male ICR mice (30-35 g) are killed by cervical dislocation. Both vasa deferentia are removed and mounted between platinum ring electrodes and placed in a 10-mL organ bath containing a modified Kreb's solution (NaCl, 118 mM; KCl, 4.70 mM;CaCl2, 2.52 mM; KH2PO4, 1.19 mM; NaHCO3, 25 mM; glucose, 11.48 mM; pH =7.4) at 37° C. The bath is continuously bubbled with a 95% O2, 5% CO2, gas mixture. One end of the vas deferens is attached to the electrode assembly, the other is attached to a Statham-Gould UC-3 isometric force transducer using 6.0 surgical silk. The vasa deferentia are stimulated transmurally with a Grass S44 stimulator (square waves of supramaximal voltage (70 V) for 1 msec and a frequency of 0.1 Hz). Resting tension is 200 mg. Vasa deferentia are stimulated continuously for 20 minutes before each experiment to allow equilibration to occur. The tissues are washed every 10 minutes during this period.

mice [3] = assay: Tail-flick analgesia after intrathecal or intraventricular administration; assay type: in vivo, mouse
Description: In the tail-flick assay which was modified for mice, the animal responses are made quantal by establishing and end point at the mean peak effect which represents an increase in the reaction time of an individual animal of greater than three S.D. of the control mean reaction time for all animals used in the group (see F. E. d'Amour et al., J. Pharmacol. Exp. Ther., 1941, 72, 7479; and J. J. Rady et al., J. Pharmacol Exp. Ther., 2000, 224, 93-101). Non-responding animals will be removed from the heat stimulus when reaction times exceed 3 seconds to avoid damage to their tails. At least 50 animals will be used to determine each peak time and ED50 dose-response curve. The ED50 and its 95% confidence interval are estimated using computer programs for both of these statistical procedures.

[4] = system: guinea pig ileum preparation; assay: Guinea pig ileal longitudinal muscle preparation, electrically stimulated contraction; details: guinea pig ilium preparation
[5] = ED50 with nor-BNI / control ED50
[6] = agonist i.t. with antagonist BNTX 25 pmol/mouse i.t.
[7] = agonist i.t. with antagonist CTOP 5.9 pmol/mouse i.t.
[8] = agonist i.t. with antagonist NTB 50 pmol/mouse i.t.
[9] = agonist i.t. with antagonist nor-BNI 2.5 nmol/mouse i.t.
[10] = intrathecal (i.t.) administration

| Molecule | Potency Ratio (95% C.I.) (mice [1]; ED50 with BNTX / control ED50) | Potency Ratio (95% C.I.) (mice [1]; ED50 with CTOP / control ED50) | Potency Ratio (95% C.I.) (mice [1]; ED50 with NTB / control ED50) | Potency Ratio (95% C.I.) (mice [1]; [5]) | norBNI antagonism of antinociception with co-administered dynorphin-A antiserum (DAS) (mice [1]) | ED50 (95% C.I.) (mice [1]; [6]) | ED50 (95% C.I.) (mice [1]; [7]) | ED50 (95% C.I.) (mice [1]; [8]) | ED50 (95% C.I.) (mice [1]; [9]) | antagonism of antinociception by BNTX, in words (mice [1]; i.t., mice) | antagonism of antinociception by nor-BNI (κ antagonist), in words (mice [1]; i.t., mice) | antagonism of antinociception by CTOP (μ antagonist), in words (mice [1]; i.t., mice) | agonist or antagonist activity in MVD [2] | analgesia (mice [3]; icv, concentration 20-fold that of the i.t. dose) [%] | ED50 analgesia (mice [3]; [10]) [nmol/mouse] | antagonism of i.t. analgesia by norBNI (mice [3]; [10]) | analgesic effect (mice [3]; intraventricular (icv), 10-fold higher concentration than i.t.) | antagonism of agonist effect by delta antagonist naltrindole (NTI) [4] |
| --- | --- | --- | --- | --- | --- | --- | --- | --- | --- | --- | --- | --- | --- | --- | --- | --- | --- | --- |
| [D-Pen^2,5]enkephalin [DPDPE] | 10.61 (6.08-18.51) | 1.43 (1.06-1.93) | 0.98 (0.71-1.41) | 12.44 (9.91-15.83) | failed to substantially reduce the potent norBNI antagonism | 41.10 (26.44-60.95) nmol/mouse | 5.11 (4.04-6.37)) nmol/mouse | 3.44 (2.69-4.45) nmol/mouse | 43.30 (36.40-51.59) nmol/mouse | antagonized | antagonized |  |  |  |  |  |  |  |
| C[C@@H](NC(=O)[C@@H](N)Cc1ccc(O)cc1)C(=O)NCC(=O)N(C)[C@@H](Cc1ccccc1)C(=O)NCCO [DAMGO, [D-Ala^2,N-Me-Phe^4,Gly-ol^5]enkephalin] | 1.50 (0.94-2.83) | 9.89 (5.91-15.34) | 1.20 (0.61-3.26) | 26.26 (16.30-46.90) | little if any antagonism | 0.017 (0.012-0.027) nmol/mouse | 0.112 (0.070-0.157) nmol/mouse | 0.014 (0.008-0.027) nmol/mouse | 0.283 (0.202-0.417) nmol/mouse |  | antagonized | antagonized |  |  |  |  |  |  |
| NC(N)=Nc1ccc2c3c([nH]c2c1)[C@@H]1Oc2c(O)ccc4c2[C@@]12CCN(CC1CC1)C(C4)[C@]2(O)C3 [compound 7, 6′-Guanidino-17-(cyclopropylmethyl)-6,7-didehydro-4,5α-epoxy-3,14-hydroxyindolo-[2′,3′:6,7]morphinian] |  |  |  |  |  |  |  |  |  |  |  |  | inactive as an agonist or as an antagonist | 20 | 0.45 | could be antagonized by norBNI | no analgesic effect | non-competetively antagonized |
